# Results: patent publication US20230355540A1, “STROKE TREATMENT” (Oxford University Innovation Limited, priority 2020, published 2023)
# How the values were obtained:
# [1] = tested on: Spontaneously Hypertensive Rats, middle cerebral artery occlusion (MCAo/stroke); assay: Collateral and control hemisphere perfusion by laser speckle contrast imaging after MCAo (Examples 4 and 5); assay type: in vivo, rat; conditions: from 25 minutes after MCAo for 45 minutes
# [2] = tested on: patients suffering ultra-acute stroke; conditions: transdermal (i.e. systemic) delivery; cited from earlier work
# [3] = tested on: Spontaneously Hypertensive Rats, middle cerebral artery occlusion (MCAo/stroke); conditions: FIG. 3
# Protocol: Animal experiments were performed on male Spontaneously Hypertensive Rats (SHRs) weighing 300-350 g (Harlan, Bicester, UK). All animals were housed in a 12 h light/dark cycle and had ad libitum access to food and water prior to experiments.
# Rats were anesthetized with 5% isoflurane in O2/N2 (1:3) and maintained with 1% to 2% isoflurane. Core temperature was maintained at 37° C. by a thermocouple rectal probe and warming plate (Harvard Apparatus, UK). Incision sites were shaved, cleaned, and injected subcutaneously with 2 mg/kg 0.05% Bupivacaine (Aspen, UK). A femoral arterial line was used for continuous arterial pressure monitoring.
# The filament was advanced into the right external carotid artery stump and up the internal carotid artery to occlude the origin of the right MCA.
# Laser Doppler flowmetry (LDF) (Oxford Optronix, Oxford, UK) was used to measure changes in cerebral blood flow (CBF) in both the MCA and collateral arterial territories using dual probes. The animal's head was secured with ear bars in a stereotaxic frame. […]
# Prior to MCAo, the femoral vein was cannulated with 2-French silicon tubing. […] Collateral perfusion was measured as a change from pre-injection baseline.
# Prior to MCAo, the femoral vein was cannulated with 2-French silicon tubing. […] Collateral perfusion was measured as a % change from pre-injection baseline.
# [4] = Mean arterial pressure through femoral artery catheter during infusion after MCAo (Examples 4 and 5); assay type: in vivo, rat; conditions: from 25 minutes after MCAo for 45 minutes
# Protocol: Animals were randomized to receive intravenous infusion of saline (control, 0.3 ml/hr n=6) or infusion of free nitroglycerin (free-GTN, 0.25 μg/μl in saline, at 300 μl/h=4 μg/kg/min, n=6), commencing 25 minutes after MCAo.
# Animals received intravenous infusion of free nitroglycerin (free-GTN, 2.5 μg/μl in saline, at 300 μl/h=40 μg/kg/min, n=4), commencing 25 minutes after MCAo. […] Vehicle control (saline) was the same control group used for 4 μg/kg/min studies (n=6).
# [5] = i.v. infusion 4 μg/kg/min nitroglycerin
smiles,measurement,setting,value
O=[N+]([O-])OCC(CO[N+](=O)[O-])O[N+](=O)[O-] [nitroglycerin],perfusion in the corresponding region of the control/contralateral hemisphere,[1]; [5],no significant effect
same,collateral blood perfusion (% change from pre-injection baseline),"[1]; i.v. infusion 4 μg/kg/min nitroglycerin, stroke hemisphere",did not change
same,collateral blood perfusion (% change from pre-injection baseline),"[1]; i.v. infusion 40 μg/kg/min, FIG. 14",did not change
same,perfusion in the corresponding region of the control/contralateral hemisphere,"[1]; i.v. infusion 40 μg/kg/min, FIG. 15",no significant effect
same,functional outcome,[2],did not improve
same,peak collateral perfusion,"[3]; free nitroglycerin not delivered using a SA-NT, Example 3b",only a modest increase
same,collateral perfusion with increasing doses,"[3]; one SHR, i.v. bolus over 1 minute of 12.5, 25, 50 and 100 m, from 30 minutes after MCAo",no additional increase
same,blood pressure (mean arterial pressure),[4]; [5],dropped
same,blood pressure (mean arterial pressure),"[4]; i.v. infusion 40 μg/kg/min, FIG. 16",significantly dropped
